The values that follow come from paper PMC8007834, “Anti-estrogenic and anti-aromatase activities of citrus peels major compounds in breast cancer” (Scientific Reports, 2021).

For one data set, the system named is MCF-7. The data set is described as follows: SRB cytotoxicity assay on MCF7. Type of data set: cell-based, human. The conditions noted are these: Homo sapiens, MCF7, ± SD, read-out: IC50 values, cytotoxic effect on MCF7. The method, then:
(§1) The assessment was performed in the National Cancer Institute in Egypt (NCI). The half maximal inhibitory concentration (IC50) values were then calculated from three independent experiments, three replicates each for each sample.
(In general: Sulforhodamine B stains cellular protein and so reports cell mass.)

A further data set deals with T47D. Kind of data set: SRB cytotoxicity assay on T47D. The conditions noted are these: Homo sapiens, T47D, ± SD, read-out: IC50 values, cytotoxic effect on T47D. Type of data set: cell-based, human. The method, then:
as §1

The nature of data set [1]: SRB cytotoxicity assay on normal HFB4 cells. Type of data set: cell-based, human. The conditions noted are these: human, normal HFB4 cells, ± SD, read-out: IC50 values, cytotoxic effect on HFB4. The method, then:
The cytotoxic activity of the ethanolic extracts of the peels along with the isolated major phenolics was tested against two human estrogen-dependent breast cancer cell lines, namely, MCF-7 and T47D, as well as the normal human HFB4 cells for assessment of toxicity, using the sulforhodamine B (SRB) assay. The assessment was performed in the National Cancer Institute in Egypt (NCI). The half maximal inhibitory concentration (IC50) values were then calculated from three independent experiments, three replicates each for each sample.

The target of the next data set is T1, Aromatase enzyme (CYP19) (Homo sapiens, UniProt P11511).
T1 construct: purchased BD Biosciences, San Jose, CA
T1 sequence (P11511 1-503): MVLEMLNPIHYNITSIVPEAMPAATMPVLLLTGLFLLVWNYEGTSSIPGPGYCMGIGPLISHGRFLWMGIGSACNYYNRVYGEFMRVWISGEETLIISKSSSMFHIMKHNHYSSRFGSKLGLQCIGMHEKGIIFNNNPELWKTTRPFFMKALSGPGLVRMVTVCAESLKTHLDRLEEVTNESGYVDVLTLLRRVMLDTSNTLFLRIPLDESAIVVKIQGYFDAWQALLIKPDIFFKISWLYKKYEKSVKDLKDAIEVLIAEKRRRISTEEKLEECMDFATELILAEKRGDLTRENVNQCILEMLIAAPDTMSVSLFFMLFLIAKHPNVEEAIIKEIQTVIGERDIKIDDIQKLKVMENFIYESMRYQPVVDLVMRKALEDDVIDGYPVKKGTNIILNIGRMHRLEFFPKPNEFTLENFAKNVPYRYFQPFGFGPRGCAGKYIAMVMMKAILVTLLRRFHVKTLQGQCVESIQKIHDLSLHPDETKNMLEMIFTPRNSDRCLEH
Kind of data set: In vitro aromatase inhibition assay (dibenzylfluorescein). Type of data set: biochemical. The conditions noted are these: ± SD.

In data set [2] the test system is Immature female Swiss albino mice. The data set is described as follows: In vivo estrogenic activity assay. The conditions noted are these: 30 mg/kg i.p., 7 days, no estradiol. The method, then: (§2) Immature female Swiss albino mice (8-13 g) were obtained from the animal house of the Faculty of Pharmacy, The British University in Egypt. All experimental procedures were conducted in compliance with the Animal Research: Reporting of In Vivo Experiments (ARRIVE) guidelines and the National Institutes of Health guide for the care and use of Laboratory animals (NIH Publication No. 85-23, revised 2011) and were approved by the Ethics Committee, Faculty of Pharmacy, The British University in Egypt (Ex-2101). All experiments were performed during the light phase of a light/dark cycle that was started 1 week after acclimatization. The room temperature was adjusted at 25 ± 2 °C. Mice had free access to food and water during the experiments. The experimental design was adopted from[27],[28]. The mice were randomly divided into 9 groups (7-8 mice each) as follows: Group 1: Negative control (NC) receiving only olive oil, s.c.; Group 2: […] For estrogenic activity, Group 3: Genistein phytoestrogen positive control (Gein.) treated group; Group 4: Quercetin (Qrt.) treated group; Group 5: Naringenin (Narn.) treated group and Group 6: Naringin (Nar.) treated group. For anti-estrogenic activity, estradiol was given after treatments by 6 h for Groups 7, 8 and 9 representing […]., respectively. All treatments including genistein were given at a dose of 30 mg/kg dissolved in Tween 80 (1%), i.p., for 7 days. The animals' weights were recorded daily to ensure the safety of the doses used. On the 7th day, the animals were sacrificed, the morphological appearance of the livers was observed, and the uteri were also isolated and weighed. The in vivo estrogenic and anti-estrogenic activities were assessed. The vaginal opening on each day of the study was checked as a sign of puberty. On the 7th day, vaginal swab was taken from the opened vagina to examine the cornification level under light microscope (4× lens). The uteri were excised and weighed after sacrification of mice under anesthesia.

Data set [3] has the same test system. Kind of data set: In vivo anti-estrogenic activity assay (with estradiol). The method, then: as §2
The test system of data set [4] is Ehrlich ascites carcinoma (EAC) solid tumor. Kind of data set: Ehrlich ascites carcinoma (EAC) solid tumor model, tumor volume. Type of data set: in vivo, mice. The conditions noted are these: 19th day after treatment; quercetin 100, naringenin 50, naringin 100 mg/kg i.p. daily. An excerpt: In order to evaluate the anticancer effect of the active isolates (quercetin, naringenin and naringin) and their potential to decrease aromatase levels in tumours, an animal model of Ehrlich ascites carcinoma (EAC) solid tumour was used followed by aromatase ELISA assay as will be described later. Swiss albino female mice (20-25 g) were used for the experiment. EAC cells were collected from the ascitic fluid of a female Swiss albino mouse bearing a 10-day old ascitic tumor where approximately 2.5 × 10^6 cells were transplanted, i.m. in the left thigh of female mice. When tumors became palpable (approximately 200-300 mm^3 in volume), treatment was initiated. Forty EAC-tumour bearing mice were randomly allocated into the following groups (n = 10): (1) PC group: positive control group that received only drug vehicle, (2) Qrt.-treated group: Mice were treated with a daily dose of 100 mg/kg of quercetin[30] i.p., (3) Narn.-treated group: Mice were treated with a daily dose of 50 mg/kg of naringenin, i.p.[31], and (4) Nar.-treated group: […] Treatment doses were given daily excluding Fridays and Saturdays. Tween 80 (1%) was used as a vehicle. Mice were sacrificed under brief anaesthesia at the 20th day after starting treatment and tumors were collected for further analysis. Tumor volume was calculated using a digital caliper at days 0, 4, 7, 10, 13, 16, and 19 after treatment, according to the following equation[33]: […]

The subject of another data set is Aromatase. Kind of data set: Aromatase protein levels in EAC solid tumors (ELISA). Type of data set: in vivo, mice. The conditions noted are these: ELISA on tumor homogenates, day 20; quercetin 100, naringenin 50, naringin 100 mg/kg i.p. An excerpt:
EAC cells were collected from the ascitic fluid of a female Swiss albino mouse bearing a 10-day old ascitic tumor where approximately 2.5 × 10^6 cells were transplanted, i.m. in the left thigh of female mice. When tumors became palpable (approximately 200–300 mm^3 in volume), treatment was initiated. Forty EAC-tumour bearing mice were randomly allocated into the following groups (n = 10): (1) PC group: positive control group that received only drug vehicle, (2) Qrt.-treated group: Mice were treated with a daily dose of 100 mg/kg of quercetin[30] i.p., (3) Narn.-treated group: Mice were treated with a daily dose of 50 mg/kg of naringenin, i.p.[31], and (4) Nar.-treated group: Mice were treated with a daily dose of 100 mg/kg of naringin, i.p.[32]. Treatment doses were given daily excluding Fridays and Saturdays. Tween 80 (1%) was used as a vehicle. Mice were sacrificed under brief anaesthesia at the 20th day after starting treatment and tumors were collected for further analysis.
Excised tumors were homogenized as 10% (w/v) in phosphate buffered saline. Aromatase concentration was then determined in tissue homogenates using Mouse Aromatase ELISA kit (MyBiosource, USA), according to the manufacturer’s instructions. Optical density equivalent to aromatase levels in samples was determined at 450 nm using a microplate reader.
On the technique in general: ELISA stands for enzyme-linked immunosorbent assay.

Details of data set [5]: method as in PMID 21964193. The conditions noted are these: naringin 40 and naringenin 80 mg/kg, respectively; cited from earlier work.
Where [6] appears, read: flavonoid 30 mg/kg i.p. plus estradiol 12.5 µg/kg s.c., estradiol alone as positive control.

As usually defined, the IC50 is the concentration at which inhibition is half-maximal.

In brackets after ≈: the same amount, converted by molar mass. A value given as a limit tells only on which side of the number the result lay.

Method for Aromatase enzyme (CYP19): Aromatase inhibition was quantified by measuring the fluorescent intensity of fluorescein, the hydrolysis product of dibenzylfluorescein, by aromatase, as previously described[29]. In brief, the test substance (10 µL) was pre-incubated with the NADPH regenerating system (90 µL of 2.6 mM NADP^+, 7.6 mM glucose 6-phosphate, 0.8 U/mL glucose 6-phosphate dehydrogenase, 13.9 mM MgCl2, and 1 mg/mL albumin in 50 mM potassium phosphate, pH 7.4) for 10 min at 37 °C before 100 µL of the enzyme and substrate mixture [4 pmol/well enzyme (CYP19, BD Biosciences, San Jose, CA), 0.4 µM dibenzylfluorescein, and 4 mg/mL albumin in 50 mM potassium phosphate, pH 7.4] were added. Then, the reaction mixture was incubated for 30 min at 37 °C to allow aromatase to generate the product and quenched with 75 µL of 2 N NaOH. After the reaction was terminated, shaking was done for 5 min followed by incubation for 2 h at 37 °C to enhance the noise/background ratio, then fluorescence was measured at 485 nm (excitation) and 530 nm (emission). Three independent experiments were performed in duplicates, and the average values were used to construct the dose–response curves.

`C[C@@H]1O[C@@H](O[C@H]2[C@H](Oc3cc(O)c4c(c3)O[C@H](c3ccc(O)cc3)CC4=O)O[C@H](CO)[C@@H](O)[C@@H]2O)[C@H](O)[C@H](O)[C@H]1O` [C8]: the half-inhibitory concentration (IC50) is 2 ± 0.98 µg/mL (≈ 3.45 µM) in the data set on MCF-7, 3.63 ± 0.1 µg/mL (≈ 6.25 µM) in the data set with T47D, above 50 µg/mL in data set [1] and 3.26 µM against Aromatase enzyme (CYP19). In data set [2], this compound yielded an average uterine weight of 17.0 ± 2.6 mg. Moreover, the “reversal of estradiol-induced vaginal cornification” value in data set [3] (30 mg/kg i.p. plus estradiol) is reported as “not fully reversed”. The “reduction in uterine weight compared to estradiol alone” value in data set [3] (30 mg/kg i.p. plus estradiol, 7 days) is 57.7%. Besides, the “day on which vaginal opening reached 100%” value in data set [3] (setting [6]) came out at 7 days. The “day on which vaginal opening started (delay up to day)” value in data set [3] (setting [6]) came to 3 days. Moreover, the “decrease in tumor volume compared to positive control” value in [4] is 71.47%. In addition, in the data set with Aromatase, the “aromatase levels in tumors, lower than positive control group” value is 59.36%. The “estrogenic and anti-estrogenic activities” value in data set [5] was “double directional estrogenic and anti-estrogenic activities”.
